Experimental findings from US20260151316A1, “FIBRILLIN PRODUCTION PROMOTER, COSMETIC COMPOSITION OR SKIN TOPICAL AGENT, ORALLY ADMINISTERED AGENT, AND ELASTIN FIBER PRODUCTION PROMOTER” (YAMASA CORPORATION, priority 2022, published 2026) are described below.

Assay [1] concerns fibrillin-1 production in normal human fibroblasts (NHDF). As to the kind of experiment: Fibrillin-1 quantification by ELISA, direct treatment of normal human fibroblasts with sample. It counts as cell-based. Conditions: Example 1, FIG. 1 versus FIG. 2 (direct treatment and K-CM). As for the experimental part: Normal human fibroblasts (NHDF; Kurabo) were seeded in a 96-well plate at a density of 2.55×10^4 cells/well/100 μL and cultured at 37° C. for 24 hours. The medium was then replaced with 100 μL of media (HuMedia-KG2; Kurabo) adjusted to contain 0, 2.5, 5 (mM) (i.e., 0, 0.0918, 0.184 (w/v %) ) of CMP, 2Na and 0, 2.5, 5 (MM) (i.e., 0, 0.092, 0.184 (w/v %) ) of UMP, 2Na, and cultured for 24 hours.
The culture supernatant from normal human fibroblasts was collected and an amount of fibrillin-1 was quantified by ELISA. The protein amount of the culture supernatant was also measured by BCA protein assay.
(An ELISA detects its analyte on a solid surface through an enzyme-linked reagent.)

Assay [2] relates to elastin fibers in freshly extracted human skin. As to the kind of experiment: Ex vivo evaluation test using freshly extracted human skin, elastica-van Gieson staining of elastin fibers. Conditions: abdominal skin, CMP, 2Na 1.0 and 2.0 (w/v %) applied from the stratum corneum side, 72 hours. How it is done: Abdominal skin tissue was used, which was taken from a patient during cosmetic surgery, after obtaining informed consent for use in research. The extracted skin was placed in a culture plate supplemented with 1.3 ml of D-MEM/Ham's F-12 medium, and conditioned overnight at 37° C. in 5% CO2. An appropriate amount of PBS (−) containing a given concentration of each sample was applied from the stratum corneum side, and further cultured for 24 hours. The treatment was continued for a total of 72 hours while replacing the sample and medium with fresh ones every 24 hours. The concentrations of CMP, 2Na in the respective samples were 0, 1.0, and 2.0 (w/v %). After the cultured skin tissue was fixed according to a standard method, skin tissue sections were prepared, elastin fibers were stained with elastica-van Gieson stain, and observed under a microscope.

For assay [3], the system named is Fibrillin-1 (FBN-1) mRNA in normal human fibroblasts. As to the kind of experiment: FBN-1 mRNA expression by real time PCR in fibroblasts treated with culture supernatant from three-dimensional cultured epidermis. It counts as cell-based. Conditions: CMP, 2Na 1.0 and 2.0 (w/v %) applied to three-dimensional cultured epidermis; supernatant on NHDF; GAPDH as control. How it is done: The mRNA expression level of Fibrillin 1(FBN1 ), a factor related to elastin synthesis, was quantified by real-time PCR. Three-dimensional cultured epidermis (LabCyte EPI MODEL 24; manufactured by J TEC) was set in a 24-well plate to which 500 μL of the attached assay medium was added, and conditioned overnight at 37° C. 50 μL of sample-containing PBS (−) was applied from the stratum corneum side and cultured for 24 hours. After removing the sample-containing PBS (−), the plate was washed with PBS (−). The medium was replaced with a fresh medium, 50 μL of sample-containing PBS (−) was newly applied from the stratum corneum side, and further cultured for 48 hours. After culturing, the culture supernatant was collected. The concentrations of CMP, 2Na in the respective samples were 0, 1.0, and 2.0 (w/v %), respectively. Normal human fibroblasts were treated with the culture supernatant by the same method as that of Example 1. RNA was extracted from NHDF using RNeasy Mini Kit (QIAGEN), and mRNA expression analysis for Fibrillin-1 (FBN-1) was performed by real time PCR ([…]). Glyceraldehyde 3-phosphate dehydrogenase (GAPDH) was used as an endogenous control.

As for `Nc1ccn([C@@H]2O[C@H](COP(=O)(O)O)[C@@H](O)[C@H]2O)c(=O)n1` [cytidylic acid], in assay [1], the “effect of promoting fibrillin production, cytidylic acid treatment compared with uridylic acid treatment” value is “comparable”. For the same molecule, in assay [2], the “density of elastin fibers (elastica-van Gieson staining)” value was “tended to result in denser elastin fibers”. Besides, the “expression level of FBN-1 mRNA” value in assay [3] is listed as “increased, depending on the concentration”.
For `O=c1ccn([C@@H]2O[C@H](COP(=O)(O)O)[C@@H](O)[C@H]2O)c(=O)[nH]1` [uridylic acid], in assay [1], the “effect of promoting fibrillin production, cytidylic acid treatment compared with uridylic acid treatment” value is “comparable”.
